Experimental data reported in patent US20060100153A1, “HSulf-1 nucleic acids, polypeptides and methods of using” (Mayo Foundation for Medical Education and Research, a …, priority 2003, published 2006).
Where a SMILES comes first, the peptide text is derived from it. The star is where a group is joined. Cbz = O=C(OCc1ccccc1)*; CH2F = FC*

Experiments:
cancer cells = settings: previous studies; cited from earlier work
[1] = system: SNU182, SNU475 and SNU449 HCC cell lines; assay: Detection and quantitation of apoptosis in SNU449, SNU182 and SNU475 HCC cell lines; assay type: cell-based; settings: for cisplatin-induced apoptosis: 5 μM, 24 hours; for staurosporine-induced apoptosis: 1 μM, 5 hours
Experimental: Detection and quantitation of apoptosis: Apoptosis was quantitated by assessing nuclear changes indicative of apoptosis (i.e., chromatin condensation and nuclear fragmentation) using the DNA binding dye DAPI as described by Roberts et al. (supra). Cells were seeded in 35-mm plates at 2×10^5 cells per well. After incubation for 24 hours, the plates were washed, changed to serum free medium containing 1 μM staurosporine, and incubated for 5 hours at 37° C. Five micrograms of DAPI were added and the plates were incubated for 20 minutes at room temperature in the dark. The cells were then examined by fluorescence microscopy (Nikon Eclipse TE200; […] For each treatment, at least 300 cells in six different high-power fields were counted. […] For experiments using cisplatin, cells cultured in medium with 10% serum were treated with or without 5 μM cisplatin for 24 hours, then stained with DAPI and counted. Flow cytometry also was used to evaluate apoptosis. After a 5 hour treatment with 1 μM staurosporine as described above, cells were collected by centrifugation and washed twice in ice-cold PBS with 3% heat-inactivated FBS and 0.02% sodium azide. Cells were stained with 50 μg/ml 7-AAD for 15 minutes in the dark. The cells were resuspended in 500 μl PBS and analyzed using a FACScan analyzer (BD Bioscience). Apoptotic cells were calculated as percent of 7-AAD positive cells in 5,000 or more cells per sample. Immunoblot analysis for mitochondrial cytochrome c release: Immunoblot analysis for cytochrome c utilized cytosolic extracts prepared by selective digitonin permeabilization (Leist et al. (1998) Mol. Pharmacol. 54:789-801). Blots were probed with mouse monoclonal anti-cytochrome c antibody (BD Pharmingen) or mouse anti-β-actin antibody. For caspase 9, whole-cell lysates were prepared as described above for the sulfatase assay. Membranes were probed with mouse anti-procaspase 9 or mouse anti-β-actin antibody. Immunoblots were developed using ECL enhanced chemiluminescence reagents after incubation with horseradish peroxidase-conjugated secondary antibodies.

[2] = system: Hep3B and Huh-7-derived clones; assay: Cisplatin-induced apoptosis in Hep3B and Huh-7 derived clones; assay type: cell-based; settings: hSulf1-transfected vs Vector stable clones; 5 μM cisplatin
Experimental: Detection and quantitation of apoptosis: Apoptosis was quantitated by assessing nuclear changes indicative of apoptosis (i.e., chromatin condensation and nuclear fragmentation) using the DNA binding dye DAPI as described by Roberts et al. (supra). Cells were seeded in 35-mm plates at 2×10^5 cells per well. After incubation for 24 hours, the plates were washed, changed to serum free medium containing 1 μM staurosporine, and incubated for 5 hours at 37° C. Five micrograms of DAPI were added and the plates were incubated for 20 minutes at room temperature in the dark. The cells were then examined by fluorescence microscopy (Nikon Eclipse TE200; […] For each treatment, at least 300 cells in six different high-power fields were counted. […] For experiments using cisplatin, cells cultured in medium with 10% serum were treated with or without 5 μM cisplatin for 24 hours, then stained with DAPI and counted.

SKOV3 cells = assay: Analysis of apoptosis (DAPI fluorescence microscopy, DNA fragmentation, 7-AAD flow cytometry, cytochrome c) in SKOV3 cells; assay type: cell-based; design: apoptosis, % of cells: dose or concentration left out as unconfirmed
Experimental: Analysis of Apoptosis: […] HSulf-1 transfected SKOV3 cells were seeded in 35-mm plates at a density of 2×10^5 cells/well. After incubation at 37° C. for 24 hours, the plates were washed and changed to serum-free medium. Staurosporine was added to a final concentration of 1 μm for 5 hours. DAPI was then added to each well. After a 20 minute incubation at room temperature in the dark, cells were examined by fluorescence microscopy (Nikon Eclipse TE200; Nikon Corp., Tokyo, Japan) using excitation and emission filters of 380 and 430 nm. An individual blinded to the experimental conditions counted at least 300 cells in six different high-power fields for each treatment. Each treatment was repeated at least three times in triplicate. […] The significance of differences between experimental variables was determined using the Student t test. DNA Fragmentation: Parental, vector and stable HSulf-1 clones 3 and 6 were treated with 1 μM staurosporine at 37° C. for 5 hours. Control or treated cells (5×10^5 cells) were harvested with trypsin and centrifuged. DNA was extracted using the Qiagen […]® kit. Aliquots containing 5 μg of DNA were resolved on a 1.5% agarose gel containing 0.5 μg/ml ethidium bromide and visualized under UV light. Flow Cytometry: After treatment with 1 μM staurosporine for 5 hours as described above, cells were washed twice in ice cold PBS containing 3% heat-inactivated fetal bovine serum and 0.02% sodium azide, stained with 7-aminoactinomycin D (7-AAD; 50 μg/ml) for 15 minutes in the dark, resuspended in 500 μl PBS, and subjected to flow cytometry on a FACScan analyzer (BD Bioscience, San Jose, Calif.). After analysis of 10,000 events, the percentage of 7-AAD positive cells was determined. Analysis of Cytosolic Cytochrome c: Parental SKOV3, stable clones of SKOV3-vector, and SKOV3-HSulf-1 clones 3 and 6 were treated with staurosporine as described above, washed in PBS, and incubated for 30 seconds in lysis buffer consisting of 210 mM D-mannitol, 70 mM sucrose, 10 mM HEPES, 5 mM sodium succinate, 0.2 mM EGTA, 0.15% BSA and 80 μg/ml digitonin. After sedimentation at 12,000×g for 1 minute, the supernatant was diluted with an equal volume of 2×sample buffer. The protein samples were quantified, resolved on a 12% SDS-PAGE gel, and subjected to immunoblot analysis as described below using anti-cytochrome c (mouse monoclonal; BD Pharmingen, San Diego, Calif.) at a dilution of 1:500.

OV207 clones = assay: Drug sensitivity of OV207 clones transfected with HSulf-1; assay type: cell-based
xenografts = settings: in vivo, previous studies; cited from earlier work
012SCC cells = assay: Analysis of apoptosis (DAPI, 7-AAD flow cytometry) in 012SCC cells; assay type: cell-based; settings: 1 μM, 5 hours
Experimental: Analysis of Apoptosis: Apoptosis was quantitated by assessing the number of cells containing nuclear changes indicative of apoptosis (chromatin condensation and nuclear fragmentation) after staining with DAPI. HSulf-1 transfected 012SCC cells were seeded in 35-mm plates at a density of 2×10^5 cells/well. After incubation at 37° C. for 24 hours, the plates were washed and changed to serum-free medium. […] After a 5 hour incubation for staurosporine and a 24 hour incubation for cisplatin at 37° C., DAPI was added to each well at a final concentration of 5 μg/ml. After a 20 minutes incubation in the dark at 37° C., cells were examined by fluorescence microscopy (Nikon Eclipse TE200; Nikon Corp., Tokyo, Japan) using excitation and emission filters of 380 and 430 nm. An individual blinded to the experimental conditions counted at least 300 cells in six different high-power fields for each treatment. Each treatment was repeated at least three times, performed in triplicate each time. The significance of differences between experimental variables was determined using the Student t test. Detection of Apoptosis by Flow Cytometry: HSulf-1-1 or vector transfected 012SCC cells were collected by centrifugation from untreated control and staurosporine treated cells. […] The cells were then resuspended in 500 μl of PBS and analyzed by FACScan (BD Bioscience). […]

hSulf1 expression = assay: Treatment with DNA methylation inhibitor, semi-quantitative RT-PCR of hSulf1; assay type: cell-based; settings: SNU449 and Huh-7 cell lines; increasing concentrations (0, 5, or 10 μM), 5 days
Experimental: Isolation of total RNA, semi-quantitative RT-PCR, and quantitative real-time PCR: Total RNA was extracted from 31 pairs of matched HCCs and adjacent benign liver tissue and the 11 HCC cell lines using the RNEASY® kit (Qiagen). cDNA synthesis was performed using SUPERSCRIPT® II RNase H reverse transcriptase (Invitrogen/Life Technologies) to transcribe 1-5 μg of total RNA primed with 1 μl of 500 μg/ml random hexamers. Primers used for semi-quantitative RT-PCR were: hSulf1-F (5′-[…]-3′; […]) and hSulf1-R (5′-[…]-3′; SEQ ID NO:14), yielding an 826 bp PCR product; GAPDH-F (5′-[…]-3′; SEQ ID NO:15) and GAPDH-R (5′-[…]-3′; SEQ ID NO:16). […] For quantitative real-time PCR analysis of HCC tumors, the hSulf1 primers were hSulf1RT-F (5′- […]-3′; SEQ ID NO:39) and hSulf1RT-R (5′-[…]-3′; SEQ ID NO:40), yielding a 379 bp PCR product. Real-time PCR was performed according to the manufacturer's recommendation in a Roche LightCycler using the following profile: 95° C. for 90 seconds followed by 34 cycles of 0 seconds at 95° C., 10 seconds at 61° C., and 20 seconds at 72° C. hSulf1 mRNA levels were normalized by comparison to 18S ribosomal RNA levels measured in the same samples. […]
Treatment with the DNA methylation inhibitor, 5-aza-2′-deoxycytidine. […] RNA (2 μg) was reverse transcribed as described above and semi-quantitative RT-PCR performed as described. […]

**Q.** Which “sensitization to chemotherapeutic drugs in vitro” value (cancer cells) does the source give for COc1cccc(-c2cc(=O)c3ccccc3o2)c1N [PD98059] here?
**A.** The value was “sensitizes a variety of cell lines, including ovarian cancer cell lines, to cisplatin and paclitaxel”.

**Q.** Which “effect on staurosporine-induced apoptosis” value ([1]; 40 μM pretreatment for 1 hour before staurosporine) does the source give for COC(=O)CC(NC(=O)C(C)NC(=O)C(NC(=O)OCc1ccccc1)C(C)C)C(=O)CF (stereo not drawn) [Z-VAD(O-Me)-fmk, N-(N^α-benzyloxycarbonylvalinylalanyl) aspartic acid (O-methyl ester) fluoromethylketone] (Cbz-Val-Ala-Asp(OMe)-CH2F; configuration not given here) here?
**A.** The value was “inhibited staurosporine-induced apoptosis”.

**Q.** What does the source list for N.N.[Cl][Pt][Cl] [cisplatin]?
**A.** cisplatin-induced apoptosis ([1]; SNU182 and three hSulf1-transfected stable clones): high sensitivity; cisplatin-induced apoptosis ([1]; parental SNU449 and SNU449-Vector): resistant; cisplatin-induced apoptosis [2]: increasing sensitivity; apoptosis, % of cells (SKOV3 cells; HSulf-1-transfected cells, cisplatin, 24 hours): 25-40%; induction of apoptosis (SKOV3 cells; parental or vector-transfected cells, cisplatin, 24 hours): little apoptosis; sensitivity to drug (OV207 clones): increased sensitivity

**Q.** With COc1cc2ncnc(Nc3ccc(F)c(Cl)c3)c2cc1OCCCN1CCOCC1 [Iressa] as the compound, how does the “response of xenografts to combination” value (xenografts) read?
**A.** The value was “enhance response of xenografts to cisplatin or paclitaxel”.

**Q.** What about the “sensitization to chemotherapeutic drugs in vitro” value (cancer cells) of the same compound?
**A.** Its value is “sensitizes cancer cells to cisplatin, paclitaxel and topotecan”.

**Q.** With CN[C@@H]1C[C@H]2O[C@@](C)([C@@H]1OC)n1c3ccccc3c3c4c(c5c6ccccc6n2c5c31)C(=O)NC4 [staurosporine] as the compound, how does the staurosporine-induced apoptosis ([1]; SNU182 and SNU475 (high hSulf1-expressing)) read?
**A.** Its staurosporine-induced apoptosis is “large increase in apoptosis”.

**Q.** What about the staurosporine-induced apoptosis ([1]; hSulf1 negative parental SNU449 and SNU449-Vector) of the same compound?
**A.** Its staurosporine-induced apoptosis is “minimal sensitivity”.

**Q.** And the staurosporine-induced apoptosis ([1]; three hSulf1-transfected SNU449 clones)?
**A.** Its staurosporine-induced apoptosis is “high sensitivity”.

**Q.** And the “apoptosis, % of cells” value (012SCC cells; HSulf-1-transfected cells)?
**A.** The value was 40%.

**Q.** And the induction of apoptosis (012SCC cells; parental or vector-transfected cells)?
**A.** The induction of apoptosis was “little apoptosis”.

**Q.** What about the induction of apoptosis (SKOV3 cells; SKOV3 clones stably transfected with HSulf-1, 1 μM, 5 hours) of the same compound?
**A.** The induction of apoptosis was “markedly enhanced caspase-dependent apoptosis”.

**Q.** And the induction of apoptosis (SKOV3 cells; parental or vector-transfected SKOV3, 1 μM, 5 hours)?
**A.** Its induction of apoptosis is “no induction of apoptosis”.

**Q.** And the sensitivity to drug (OV207 clones)?
**A.** The sensitivity to drug was “increased sensitivity”.

**Q.** For Nc1ncn([C@H]2C[C@H](O)[C@@H](CO)O2)c(=O)n1 [5-aza-2′-deoxycytidine], which hSulf1 expression (hSulf1 expression) is on record?
**A.** The hSulf1 expression was “reactivation of hSulf1 expression”.
